Where “and” joins values, the source holds several entries; their conditions need not be identical. Equal entries are not always repeated.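 These data come from cells grown in 96-well plates and exposed to compound for 48 hours at five concentrations. GI50 = concentration required for 50% inhibition of growth. TGI is the concentration that stops growth completely.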
Assays:
Experiment in all cases: NCI anticancer screen, dose series, 48 h
[1] = test system: NCI-H226 lung
[2] = test system: M14 melanoma
[3] = test system: NCI-H23 lung
[4] = test system: HL-60(TB) leukemia
[5] = test system: IGROV1 ovarian
[6] = test system: SF-539 CNS
[7] = test system: MOLT-4 leukemia
[8] = test system: K-562 leukemia
[9] = test system: HCT-15 colon
[10] = test system: LOX IMVI melanoma

Clc1ccc(-c2c(C3=NCCN3)nnn2-c2ccccc2)cc1
TGI [1]: > 100 µM
TGI [2]: > 100 µM
TGI [3]: > 100 µM
TGI [4]: > 100 µM
TGI [5]: > 100 µM
TGI [6]: > 100 µM
TGI [7]: > 100 µM
TGI [8]: > 100 µM
TGI [9]: > 100 µM
TGI [10]: > 100 µM

COc1cc(C2c3cc4c(cc3[C@@H](N(C)C)[C@H]3COC(=O)C23)OCO4)cc(OC)c1O (some centres not stated)
TGI [1]: > 100 µM
TGI [2]: > 100 µM
TGI [3]: > 100 µM
TGI [4]: > 100 µM
TGI [5]: > 100 µM
TGI [6]: 53.8 µM
TGI [7]: > 100 µM
TGI [8]: > 100 µM
TGI [9]: > 100 µM
TGI [10]: > 100 µM

Cn1cc(C2=C(c3cn(C)c4cc(N)ccc34)C(=O)NC2=O)c2ccccc21
GI50 [1]: 3.59 µM
TGI [1]: 17.2 µM
GI50 [2]: 4.96 µM
TGI [2]: > 25 µM
GI50 [3]: 3.72 µM
TGI [3]: 11.8 µM
GI50 [4]: 1.1 µM
TGI [4]: 5.52 µM
GI50 [5]: 6.05 µM
TGI [5]: 17.6 µM
GI50 [6]: 0.568 µM
TGI [6]: 2.27 µM
GI50 [7]: 2.26 µM
TGI [7]: > 18.7 µM
GI50 [8]: 0.396 µM
TGI [8]: > 23.8 µM
GI50 [9]: 1.04 µM
TGI [9]: > 21.6 µM
GI50 [10]: 3.1 µM
TGI [10]: > 25 µM

COc1cc(/C=C2\CN(C(=O)CCN3CCC(=NO)CC3)C/C(=C\c3cc(OC)c(OC)c(OC)c3)C2=O)cc(OC)c1OC
GI50 [1]: 0.792 µM
TGI [1]: 2.85 µM
GI50 [2]: 0.248 µM
TGI [2]: 0.812 µM
GI50 [3]: 0.342 µM
TGI [3]: 1.39 µM
GI50 [4]: 0.298 µM
TGI [4]: 1.05 µM
GI50 [5]: 0.275 µM
TGI [5]: 0.793 µM
GI50 [6]: 0.277 µM
TGI [6]: 0.928 µM
GI50 [7]: 0.328 µM
TGI [7]: 12.1 µM
GI50 [8]: 0.301 µM
TGI [8]: > 100 µM
GI50 [9]: 0.972 µM
TGI [9]: 3.22 µM
GI50 [10]: 0.194 µM
TGI [10]: 0.472 µM

CSc1nsc(S/C=C\C(=O)c2ccc(C)cc2)n1
GI50 [1]: 20.7 µM
TGI [1]: 55.5 µM
GI50 [2]: 15.5 µM
TGI [2]: 30.8 µM
GI50 [3]: 17.3 µM
TGI [3]: 34.6 µM
GI50 [4]: 11.6 µM
TGI [4]: > 68.9 µM
GI50 [5]: 25.5 µM
TGI [5]: > 100 µM
GI50 [6]: 19 µM
TGI [6]: 36.2 µM
GI50 [7]: 1.61 µM
TGI [7]: > 51.5 µM
GI50 [8]: 6.37 µM
TGI [8]: > 100 µM
GI50 [9]: 11.9 µM
TGI [9]: 25.3 µM
GI50 [10]: 4.94 µM
TGI [10]: 10.8 µM

CCCCN(CCCC)CCc1c(C)cc(C)c(CCN(CCCC)CCCC)c1O
GI50 [1]: 3.16 µM
TGI [1]: 37.8 µM
GI50 [2]: 3.15 µM
TGI [2]: 20.8 µM
GI50 [3]: 2.76 µM
TGI [3]: 23.7 µM
GI50 [4]: 2.51 µM
TGI [4]: 8.17 µM
GI50 [5]: 3.69 µM
TGI [5]: 35.6 µM
GI50 [6]: 3.51 µM
TGI [6]: 28.2 µM
GI50 [7]: 2.73 µM
TGI [7]: 10.8 µM
GI50 [8]: 2.25 µM
TGI [8]: > 100 µM
GI50 [9]: 3.06 µM
TGI [9]: 13 µM
GI50 [10]: 2.67 µM
TGI [10]: > 100 µM

CCCCNC(=O)Oc1ccc(/C(=C(/CC)Cc2ccccc2)c2ccc(OCCN3CCCCCC3)cc2)cc1
GI50 [1]: > 100 µM
TGI [1]: > 100 µM
GI50 [2]: 17.7 µM
TGI [2]: 33.9 µM
GI50 [3]: 59.1 µM
TGI [3]: > 100 µM
GI50 [4]: 16.5 µM
TGI [4]: 40 µM
GI50 [5]: 30.5 µM
TGI [5]: > 100 µM
GI50 [6]: 17 µM
TGI [6]: 31.3 µM
GI50 [7]: 21.8 µM
TGI [7]: 72.7 µM
GI50 [8]: 16.7 µM
TGI [8]: 46.9 µM
GI50 [9]: 16.4 µM
TGI [9]: 36.3 µM
GI50 [10]: 17 µM
TGI [10]: 30.7 µM

Cc1nn(CNc2ccccc2C(F)(F)F)c(=S)n1/N=C/c1ccc(F)cc1
GI50 [1]: 43.7 µM
TGI [1]: > 100 µM
GI50 [2]: 87.9 µM
TGI [2]: > 100 µM
GI50 [3]: > 100 µM
TGI [3]: > 100 µM
GI50 [4]: 91.9 µM
TGI [4]: > 100 µM
GI50 [5]: > 100 µM
TGI [5]: > 100 µM
GI50 [6]: > 100 µM
TGI [6]: > 100 µM
GI50 [7]: 46.6 µM
TGI [7]: > 100 µM
GI50 [8]: 89.4 µM
TGI [8]: > 100 µM
GI50 [9]: 53.7 µM
TGI [9]: > 100 µM
GI50 [10]: > 100 µM
TGI [10]: > 100 µM

COc1cc2ncnc3c2cc1OCCCCCN(C)Cc1ccc(Br)cc1N3
GI50 [1]: 26.4 µM and 7.69 µM
TGI [1]: > 100 µM
GI50 [2]: 1.94 µM and 0.939 µM
TGI [2]: > 100 µM
GI50 [3]: 40.8 µM and > 10 µM
TGI [3]: > 100 µM
GI50 [4]: 2.94 µM and 3.68 µM
TGI [4]: > 100 µM
GI50 [5]: 0.35 µM and 0.31 µM
TGI [5]: 10.6 µM and 4.31 µM
GI50 [6]: > 100 µM
TGI [6]: > 100 µM
GI50 [7]: 6.85 µM and 3.88 µM
TGI [7]: > 100 µM
GI50 [8]: 3.98 µM and 2.93 µM
TGI [8]: > 100 µM
GI50 [9]: 0.885 µM and 0.975 µM
TGI [9]: > 100 µM
GI50 [10]: 2.93 µM and 2.12 µM
TGI [10]: > 100 µM

COC(=O)c1ccc(C(=O)OC)c2nc3cc(C)ccc3nc12
TGI [1]: > 100 µM
TGI [2]: > 100 µM
TGI [3]: > 100 µM
TGI [4]: > 100 µM
TGI [5]: > 100 µM
TGI [6]: > 100 µM
TGI [7]: > 100 µM
TGI [8]: > 100 µM
TGI [9]: > 100 µM
TGI [10]: > 100 µM

Oc1c(CN2CCCC2)cc(CSCc2ccccc2)c2cccnc12
GI50 [1]: 1.11 µM
TGI [1]: 4.8 µM
GI50 [2]: 0.397 µM
TGI [2]: 2.59 µM
GI50 [3]: 1.31 µM
TGI [3]: 5.12 µM
GI50 [4]: 0.554 µM
TGI [4]: 2.77 µM
GI50 [5]: 1.93 µM
TGI [5]: 11.3 µM
GI50 [6]: 1.35 µM
TGI [6]: 3.93 µM
GI50 [7]: 0.671 µM
TGI [7]: 2.74 µM
GI50 [8]: 0.551 µM
TGI [8]: 10.6 µM
GI50 [9]: 0.0612 µM
TGI [9]: 1.85 µM
GI50 [10]: 0.386 µM
TGI [10]: 2.48 µM

CN1C(=O)C2C=CC1C1CCC2N(C)C1=O (configuration not stated)
TGI [1]: > 100 µM
TGI [2]: > 100 µM
TGI [3]: > 100 µM
TGI [4]: > 100 µM
TGI [5]: > 100 µM
TGI [6]: > 100 µM
TGI [7]: > 100 µM
TGI [8]: > 100 µM
TGI [9]: > 100 µM
TGI [10]: > 100 µM

CC(/C=C/NNC1=NC(c2ccccc2)C(c2ccccc2)=NN1)Sc1ccccc1N (configuration not stated)
TGI [1]: 24.3 µM
TGI [2]: 10.6 µM
TGI [3]: 29.7 µM
TGI [4]: 6.45 µM
TGI [5]: 30 µM
TGI [6]: 20.9 µM
TGI [7]: 34 µM
TGI [8]: > 100 µM
TGI [9]: 19.8 µM
TGI [10]: 11.4 µM

CC(C(=O)O)c1ccc(-c2ccccc2)c(F)c1 (configuration not stated)
TGI [1]: > 100 µM
TGI [2]: > 100 µM
TGI [3]: > 100 µM
TGI [4]: > 100 µM
TGI [5]: > 100 µM
TGI [6]: > 100 µM
TGI [7]: > 100 µM
TGI [8]: > 100 µM
TGI [9]: > 100 µM
TGI [10]: > 100 µM

C/C(=N\NC(=S)N1CCN(c2ccccn2)CC1)c1nccs1
TGI [1]: 6.66 µM
TGI [2]: 1.49 µM
GI50 [3]: 0.0643 µM
TGI [3]: 13.8 µM
GI50 [4]: 0.00712 µM
TGI [4]: 0.0419 µM and 0.0526 µM
GI50 [5]: 0.0817 µM
TGI [5]: 20.2 µM
TGI [6]: 4.37 µM
GI50 [7]: 0.00504 µM
TGI [7]: 22.3 µM
GI50 [8]: 0.00649 µM
TGI [8]: 6.33 µM
GI50 [9]: 0.0472 µM
TGI [9]: 21.3 µM
GI50 [10]: 0.0952 µM
TGI [10]: 2.42 µM

— PubChem BioAssay (NCI)
